Starred links: 1 amine or outer side, 2 acyl side, 3 side chain; linkers in the order of their positions; H or OH if unused. Non-standard residues stand in square brackets, D forms with d. Residues, ends and D or L forms follow the SMILES beside them. X1 = O=C(CNC(=S)[C@H](Cc1ccccc1)N[*:1])[*:2]; 2Nal = N[C@@H](Cc1ccc2ccccc2c1)C(=O)O; Arg(Me) = CNC(=N)NCCC[C@H](N)C(=O)O; 3Pal = N[C@@H](Cc1cccnc1)C(=O)O; 4Pal = N[C@@H](Cc1ccncc1)C(=O)O; d4Pal = N[C@H](Cc1ccncc1)C(=O)O; azaGly = NNC(=O)O
What was measured:
[1] = biological target: T1, KiSS-1 receptor (Homo sapiens, UniProt Q969F8); test: Binding affinity to human KISS1R
[2] = Metabolic stability of the compound in mouse serum assessed as compound residual ratio at 0.1 mM after 1 hr; format: ADME, cell-free; conditions: read-out: Stability
[3] = biological target: T1, KiSS-1 receptor; test: Agonist activity at human KISS1R assessed as induction of intracellular calcium mobilization by fluorometric analysis; format: functional, cell-based
[4] = biological target: KiSS-1 receptor (Rattus norvegicus, UniProt Q924U1); test: Binding affinity to rat KISS1R
[5] = Drug metabolism in mouse plasma at 0.1 mM after 1 min by HPLC-ESI-MS analysis; format: ADME, cell-free; conditions: read-out: Drug metabolism
[6] = Metabolic stability of the compound in human serum assessed as compound residual ratio after 5 mins; format: ADME, cell-free; conditions: read-out: Stability
[7] = Metabolic stability of the compound in human serum assessed as compound residual ratio after 10 mins; format: ADME, cell-free; conditions: read-out: Stability
[8] = Metabolic stability of the compound in human serum assessed as compound residual ratio after 15 mins; format: ADME, cell-free; conditions: read-out: Stability
[9] = Half life in human serum; format: ADME, cell-free
[10] = test system: Serum; test: Metabolic stability of the compound in human serum; format: ADME, cell-free

T1 sequence (Q969F8 whole entry): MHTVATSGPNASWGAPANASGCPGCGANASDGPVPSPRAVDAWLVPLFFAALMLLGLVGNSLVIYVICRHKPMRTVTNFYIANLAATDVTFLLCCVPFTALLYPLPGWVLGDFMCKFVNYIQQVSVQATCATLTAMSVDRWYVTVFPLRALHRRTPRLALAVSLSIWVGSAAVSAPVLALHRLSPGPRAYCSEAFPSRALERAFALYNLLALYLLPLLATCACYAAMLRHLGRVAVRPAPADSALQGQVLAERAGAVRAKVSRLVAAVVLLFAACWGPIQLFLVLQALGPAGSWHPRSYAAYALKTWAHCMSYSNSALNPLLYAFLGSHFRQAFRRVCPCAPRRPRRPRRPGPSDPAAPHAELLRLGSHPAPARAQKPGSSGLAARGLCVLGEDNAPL
Sequence of KiSS-1 receptor (Rattus norvegicus, UniProt Q924U1) (Q924U1 whole entry): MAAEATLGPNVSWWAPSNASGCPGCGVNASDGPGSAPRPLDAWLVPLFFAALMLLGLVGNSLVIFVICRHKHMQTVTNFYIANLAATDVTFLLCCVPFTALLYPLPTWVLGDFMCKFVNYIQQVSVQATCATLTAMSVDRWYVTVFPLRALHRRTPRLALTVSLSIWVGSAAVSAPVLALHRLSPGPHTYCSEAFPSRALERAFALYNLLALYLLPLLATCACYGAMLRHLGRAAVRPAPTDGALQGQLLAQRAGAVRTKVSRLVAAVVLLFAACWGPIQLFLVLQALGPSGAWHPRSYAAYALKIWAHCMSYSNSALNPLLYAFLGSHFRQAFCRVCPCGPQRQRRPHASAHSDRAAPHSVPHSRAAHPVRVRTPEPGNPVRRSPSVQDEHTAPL

| Structure (SMILES) | IC50 [1] [nM] | remaining at 1 h, 100 µM [2] [%] | EC50 [3] [nM] | IC50 [4] [nM] | metabolised at 1 min, 100 µM [5] [%] | remaining at 5 min [6] [%] | remaining at 10 min [7] [%] | remaining at 0.25 h [8] [%] | half-life [9] [min] | Stability [10] |
| --- | --- | --- | --- | --- | --- | --- | --- | --- | --- | --- |
| CNC(N)=NCCC[C@H](NC(=O)[C@H](CC(C)C)NC(=O)CC(=O)N[C@H](Cc1ccccc1)NC(=O)[C@H](CO)NC(=O)[C@H](CC(N)=O)NC(=O)[C@H](Cc1c[nH]c2ccccc12)NC(=O)[C@H](CC(N)=O)NC(=O)[C@H](N)Cc1ccc(O)cc1)C(=O)N[C@@H](Cc1ccccc1)C(N)=O | 0.51 | 46.8 | 0.95 | 2.9 |  |  |  |  |  |  |
| CNC(N)=NCCC[C@H](NC(=O)[C@H](CC(C)C)NC(=O)CNC(=S)[C@H](Cc1ccccc1)NC(=O)[C@H](CO)NC(=O)[C@H](CC(N)=O)NC(=O)[C@H](Cc1c[nH]c2ccccc12)NC(=O)[C@H](CC(N)=O)NC(=O)[C@H](N)Cc1ccc(O)cc1)C(=O)N[C@@H](Cc1ccccc1)C(N)=O (H-[dY]NWNS[X1]L[Arg(Me)]F-NH2) | 2.8 | 35.3 | 0.041 | 3.3 |  |  |  |  |  |  |
| CNC(N)=NCCC[C@H](NC(=O)[C@H](CC(C)C)NC(=O)NNC(=O)[C@H](Cc1ccccc1)NC(=O)[C@H](CO)NC(=O)[C@H](CC(N)=O)NC(=O)[C@@H](NC(=O)[C@H](CC(N)=O)NC(=O)[C@H](N)Cc1ccc(O)cc1)[C@@H](C)O)C(=O)N[C@@H](Cc1ccccc1)C(N)=O (H-[dY]NTNSF[azaGly]L[Arg(Me)]F-NH2) | 0.86 | 62.5 | 0.24 | 0.83 |  |  |  |  |  |  |
| CC[C@H](C)[C@H](NC(=O)[C@H](CC(N)=O)NC(=O)[C@H](N)Cc1ccc(O)cc1)C(=O)N[C@@H](CC(N)=O)C(=O)N[C@@H](CO)C(=O)N[C@@H](Cc1ccccc1)C(=O)NNC(=O)N[C@@H](CC(C)C)C(=O)N[C@@H](CCCNC(=N)NC)C(=O)N[C@@H](Cc1ccccc1)C(N)=O (H-[dY]NINSF[azaGly]L[Arg(Me)]F-NH2) | 0.43 |  | 0.13 | 0.46 |  |  |  |  |  |  |
| CNC(=N)NCCC[C@H](NC(=O)[C@H](CC(C)C)NC(=O)NNC(=O)[C@H](Cc1ccccc1)NC(=O)[C@H](CO)NC(=O)[C@H](CC(N)=O)NC(=O)[C@H](Cc1cccnc1)NC(=O)[C@H](CC(N)=O)NC(=O)[C@H](N)Cc1ccc(O)cc1)C(=O)N[C@@H](Cc1ccccc1)C(N)=O (H-[dY]N[3Pal]NSF[azaGly]L[Arg(Me)]F-NH2) | 0.7 | 50.6 | 0.24 | 0.89 |  |  |  |  |  |  |
| CNC(N)=NCCC[C@H](NC(=O)[C@H](CC(C)C)NC(=O)NNC(=O)[C@H](Cc1ccccc1)NC(=O)[C@H](CO)NC(=O)[C@H](CC(N)=O)NC(=O)[C@H](CO)NC(=O)[C@H](CC(N)=O)NC(=O)[C@H](N)Cc1ccc(O)cc1)C(=O)N[C@@H](Cc1ccccc1)C(N)=O (H-[dY]NSNSF[azaGly]L[Arg(Me)]F-NH2) | 0.49 | 50 | 0.73 | 0.43 |  | 86.5 | 85.3 | 86.4 |  | Stable |
| CNC(N)=NCCC[C@H](NC(=O)[C@H](CC(C)C)NC(=O)CNC[C@H](Cc1ccccc1)NC(=O)[C@H](CO)NC(=O)[C@H](CC(N)=O)NC(=O)[C@H](Cc1c[nH]c2ccccc12)NC(=O)[C@H](CC(N)=O)NC(=O)[C@H](N)Cc1ccc(O)cc1)C(=O)N[C@@H](Cc1ccccc1)C(N)=O | 0.61 | 12.1 | 0.62 | 1.4 |  |  |  |  |  |  |

Compounds with a lower IC50 [1], results first:

| IC50 [1] [nM] | remaining at 1 h, 100 µM [2] [%] | EC50 [3] [nM] | IC50 [4] [nM] | metabolised at 1 min, 100 µM [5] [%] | remaining at 5 min [6] [%] | remaining at 10 min [7] [%] | remaining at 0.25 h [8] [%] | half-life [9] [min] | Stability [10] | Structure (SMILES) |
| --- | --- | --- | --- | --- | --- | --- | --- | --- | --- | --- |
| 0.3 | 30.7 | 0.11 | 0.28 |  |  |  |  |  |  | CNC(N)=NCCC[C@H](NC(=O)[C@H](CC(C)C)NC(=O)NNC(=O)[C@H](Cc1ccccc1)NC(=O)[C@H](CO)NC(=O)[C@H](CC(N)=O)NC(=O)[C@H](Cc1ccncc1)NC(=O)[C@H](CC(N)=O)NC(=O)[C@H](N)Cc1ccc(O)cc1)C(=O)N[C@@H](Cc1ccccc1)C(N)=O (H-[dY]N[4Pal]NSF[azaGly]L[Arg(Me)]F-NH2) |
| 0.28 |  | 0.59 | 0.28 |  |  |  |  |  |  | CNC(N)=NCCC[C@H](NC(=O)[C@H](CC(C)C)NC(=O)NNC(=O)[C@H](Cc1ccccc1)NC(=O)[C@H](CO)NC(=O)[C@H](CC(N)=O)NC(=O)[C@@H](Cc1ccncc1)NC(=O)[C@H](CC(N)=O)NC(=O)[C@H](N)Cc1ccc(O)cc1)C(=O)N[C@@H](Cc1ccccc1)C(N)=O (H-[dY]N[d4Pal]NSF[azaGly]L[Arg(Me)]F-NH2) |
| 0.19 | 32 | 0.1 | 0.24 |  |  |  |  |  |  | CNC(N)=NCCC[C@H](NC(=O)[C@H](CC(C)C)NC(=O)NNC(=O)[C@H](Cc1ccccc1)NC(=O)[C@H](CO)NC(=O)[C@H](CC(N)=O)NC(=O)[C@H](CC1CCCCC1)NC(=O)[C@H](CC(N)=O)NC(=O)[C@H](N)Cc1ccc(O)cc1)C(=O)N[C@@H](Cc1ccccc1)C(N)=O |
| 0.19 | 56.4 | 0.072 |  |  |  |  |  |  |  | CNC(N)=NCCC[C@H](NC(=O)[C@H](CC(C)C)NC(=O)NNC(=O)[C@H](Cc1ccccc1)NC(=O)[C@H](CO)NC(=O)[C@H](CC(N)=O)NC(=O)[C@@H](Cc1c[nH]c2ccccc12)NC(=O)[C@H](CC(N)=O)NC(=O)[C@H](N)Cc1ccc(O)cc1)C(=O)N[C@@H](Cc1ccccc1)C(N)=O |
| 0.16 | 39.5 |  |  |  |  |  |  |  |  | CNC(=N)NCCC[C@H](NC(=O)[C@H](CC(C)C)NC(=O)NNC(=O)[C@H](Cc1ccccc1)NC(=O)[C@H](CO)NC(=O)[C@H](CC(N)=O)NC(=O)[C@H](Cc1c[nH]c2ccccc12)NC(=O)[C@H](CC(N)=O)NC(=O)[C@H](N)Cc1ccc(O)cc1)C(=O)N[C@@H](Cc1ccccc1)C(N)=O |
| 0.13 | 43.6 | 0.098 | 0.2 |  |  |  |  |  |  | CNC(=N)NCCC[C@H](NC(=O)[C@H](CC(C)C)NC(=O)NNC(=O)[C@H](Cc1ccccc1)NC(=O)[C@H](CO)NC(=O)[C@H](CC(N)=O)NC(=O)[C@H](Cc1ccc2ccccc2c1)NC(=O)[C@H](CC(N)=O)NC(=O)[C@H](N)Cc1ccc(O)cc1)C(=O)N[C@@H](Cc1ccccc1)C(N)=O (H-[dY]N[2Nal]NSF[azaGly]L[Arg(Me)]F-NH2) |
| 0.11 | 18.1 | 0.065 |  |  | 90.7 | 85.8 | 82.7 | 75 |  | CNC(N)=NCCC[C@H](NC(=O)[C@H](CC(C)C)NC(=O)CNC(=O)[C@H](Cc1ccccc1)NC(=O)[C@H](CO)NC(=O)[C@H](CC(N)=O)NC(=O)[C@H](Cc1c[nH]c2ccccc12)NC(=O)[C@H](CC(N)=O)NC(=O)[C@H](N)Cc1ccc(O)cc1)C(=O)N[C@@H](Cc1ccccc1)C(N)=O |
| 0.082 |  | 0.049 |  | > 50 | 0.9 | < 0.5 | < 0.5 | < 1 |  | CC(C)C[C@H](NC(=O)CNC(=O)[C@H](Cc1ccccc1)NC(=O)[C@H](CO)NC(=O)[C@H](CC(N)=O)NC(=O)[C@H](Cc1c[nH]c2ccccc12)NC(=O)[C@H](CC(N)=O)NC(=O)[C@@H](N)Cc1ccc(O)cc1)C(=O)N[C@@H](CCCNC(=N)N)C(=O)N[C@@H](Cc1ccccc1)C(N)=O [KISSPEPTIN-10] |
